From US20200239938A1 (priority 2017, published 2020) come the findings set out here.

Assay type in all cases: cell-based
The subject of assay [1] is Campylobacter jejuni DSM-24306. The assay is described as follows: microtiter plate cultivation assay with qPCR enumeration of the Cj0414 target gene (growth curves, growth rate). The note with it: Butyrate 25 mM; for growth rate: cultivation period of 0 to 7 h, very high to low inoculum, GutCare 10% (v/v). From the text: (§1) The pathogens of interest Salmonella enterica subsp. enterica and Campylobacter jejuni were cultivated in microtiter plate scale in order to enable the simultaneous application of four different starting culture concentrations and treatments (Table 3). For analysis, samples for DNA extraction were taken after different times of cultivation and applied for qPCR enumeration of Salmonella enterica subsp. enterica and Campylobacter jejuni specific genes. As the qPCR assay is designed to record both viable and non-viable cells, an additional viability check was performed for AB treated cultures and the untreated controls.
For Campylobacter jejuni experiments the DSMZ strain DSM-24306 was applied. The inoculum culture was produced by a first overnight cultivation on Columbia Blood Agar (CBA) followed by an overnight cultivation in Mueller-Hinton broth (MH). All cultivations took place under microaerophilic conditions (5% O2, 10% CO2, and […]) at 41° C.
The actual assay was carried out in microtiter plate format containing a total volume of 200 μl. Following media for the different treatment conditions were prepared according to Table 4. For the probiotic treatments (Ecobiol and GutCare), sterile filtrated supernatant of an overnight culture (=cell-free) or non-sterile filtrated, cell-containing supernatant of the same overnight culture was applied.
For C. jejuni all treatments were prepared in MH medium and for S. enterica in LBG respectively. Strains were cultivated under the conditions described in 2.1. Inoculated medium without any treatment served as an untreated control.
For each intervention and for the untreated control, following inoculum concentrations given in starting quantity of the Salmonella enterica subsp. enterica and Campylobacter jejuni specific target gene per ml culture were applied for the start of the assay:
From each concentration and treatment, enough wells were prepared to extract DNA from three well replicates per time point and treatment. For Campylobacter, DNA was extracted after 0, 7, 24 and 48 h. For Salmonella, 0, 2, 4, 6, 24 and 30 h of cultivation were chosen. […]
(§2) For enumeration of Salmonella or Campylobacter, primers and probes binding in conserved genetic regions, specific for each species were applied in qPCR assays with a total volume of 30 μl and a DNA eluate volume of 10 μl. […] Absolute quantification of targets was performed under consolidation of standard curves that were carried with each run. Using the standard curves, the starting quantity (SQ) of the specific target was calculated for each sample. […]
To outline the effect of each treatment, the difference of growth rates between untreated and treated cultures was calculated for each starting inoculum concentration as following: […]
On the technique in general: In qPCR the cycle at which signal appears reflects the starting amount.

Assay [2] concerns Salmonella enterica subsp. enterica DSM-5569. The assay is described as follows: drop plate enumeration of viable cells on tryptic soy agar. Details: key: +++: bacterial lawn; ++: few colonies; +: single colonies; −: no growth observable.
In assay [3] the test system is Campylobacter jejuni DSM-24306. The assay is described as follows: drop plate enumeration of viable cells on Columbia Blood Agar. Details: key: +++: bacterial lawn; ++: few colonies; +: single colonies; −: no growth observable.
Assay [4] concerns Campylobacter jejuni DSM-24306. The assay is described as above. Details: key to drop plate growth: +++: bacterial lawn; ++: few colonies; +: single colonies; −: no growth observable. As to conditions: for viable cells at the start of cultivation: 0 h.
Text: as §1
(§3) In order to evaluate the effect of bactericidic effect Kanamycin, drop plate tests were performed to determine the number of viable cells. Three dilutions of a ten-fold series of the high (dilutions 10^−3, 10^−4 and 10^−5) and low (dilutions 10′, 10^−2 and 10^−3) inoculated culture after 0 and 6 h were plated in triplicates on CBA (Campylobacter) or tryptic soy agar (TSA) (Salmonella) by dropping 10 μl on the agar. The plates were evaluated regarding growth at the distinct log dilutions after 24 h incubation (41° C. microaerophilic for Campylobacter, 37° C. aerobic for Salmonella).

Assay [5] has as its system Salmonella enterica subsp. enterica DSM-5569. The assay is described as follows: drop plate enumeration of viable cells on tryptic soy agar. As to conditions: for viable cells at the start of cultivation: 0 h. Details: key to drop plate growth: +++: bacterial lawn; ++: few colonies; +: single colonies; −: no growth observable.
Text: as §1, §3

Assay [6] has the same test system. The assay is described as follows: microtiter plate cultivation assay with qPCR enumeration of the hilA target gene (growth curves, growth rate).
Text: as §1, with “controls. […]” for “controls.”
For each intervention and for the untreated control, following inoculum concentrations given in starting quantity of the Salmonella enterica subsp. enterica and Campylobacter jejuni specific target gene per ml culture were applied for the start of the assay: […]
as §2

[7] abbreviates: High concentrated, After 0 h, dilution 10^−6.
Where [8] appears, read: High concentrated, After 0 h, dilution 10^−7.
Where [9] appears, read: High concentrated, After 6 h, dilution 10^−6.
Where [10] appears, read: High concentrated, After 6 h, dilution 10^−7.
The mark [11] stands for this setting: Low concentrated, After 0 h, dilution 10^−4.
Setting [12] is: Low concentrated, After 0 h, dilution 10^−5.
[13] abbreviates: Low concentrated, After 6 h, dilution 10^−4.
The mark [14] stands for this setting: Low concentrated, After 6 h, dilution 10^−5.
The mark [15] stands for this setting: High concentrated, After 0 h, dilution 10^−5.
The mark [16] stands for this setting: High concentrated, After 6 h, dilution 10^−5.
Where [17] appears, read: Low concentrated, After 0 h, dilution 10^−3.
Where [18] appears, read: Low concentrated, After 6 h, dilution 10^−3.

For `NC[C@H]1O[C@H](O[C@H]2[C@H](O)[C@@H](O[C@H]3O[C@H](CO)[C@@H](O)[C@H](N)[C@H]3O)[C@H](N)C[C@@H]2N)[C@H](O)[C@@H](O)[C@@H]1O` [Kanamycin], the growth rate in assay [1] (Kanamycin 50 μl/ml) is roughly 0.13. Moreover, the drop plate growth entry in assay [2] (setting [7]) is “++”; in assay [2] (setting [8]), “+”; in assay [2] (setting [9]), “−”; in assay [2] (setting [10]), “−”; in assay [2] (setting [11]), “++”; in assay [2] (setting [12]) it was “+”. Moreover, the drop plate growth entry was “−” in assay [2] (setting [13]); “−” in assay [2] (setting [14]); “+” in assay [3] (setting [7]); “−” in assay [3] (setting [8]); “−” in assay [3] (setting [9]); “−” in assay [3] (setting [10]). Further, the drop plate growth result in assay [3] (setting [11]) was “++”; in assay [3] (setting [12]), “+”; in assay [3] (setting [13]), “−”; in assay [3] (setting [14]) it was “−”; in assay [4] (setting [15]), “++”; in assay [4] (setting [16]) it was “−”. For the same compound, the drop plate growth entry in assay [4] (setting [17]) is on record as “++”; in assay [4] (setting [18]), “−”; in assay [5] (setting [15]), “+++”; in assay [5] (setting [16]), “−”; in assay [5] (setting [17]), “+++”; in assay [5] (setting [18]), “−”. Besides, the “viable cells at the start of cultivation” value in assay [4] (high concentrated inoculum) was 6-7 log; in assay [4] (low concentrated inoculum), 5 log; in assay [5] (high concentrated inoculum), 6-7 log; in assay [5] (low concentrated inoculum) it was 5 log.
Regarding `CCCC(=O)[O-].[Na+]` [sodium butyrate, Sodium butyrate], the “growth curve (target starting quantity (SQ) per ml culture, qPCR)” value in assay [1] (all inoculum concentrations, MH medium, 41° C. microaerophilic, GutCare (cell-free) 10% (v/v), Kanamycin 50 μl/ml, 0-48 h) was “inhibitory effect”; in assay [6] (all inoculum concentrations, LBG, 37° C. aerobic, Butyrate 25 mM, Ecobiol 10% (v/v), 0-30 h), “strong exponential growth during the first 7 h”. Further, in assay [1] (compared with untreated control), the “plateau SQ” value is “significantly lower plateau SQ”. Further, the growth rate result in assay [1] (Kanamycin 50 μl/ml) was “around 0.24”. For the same compound, the “difference of the growth rates (delta) from untreated control” value in assay [6] (0 to 7 h, in relation to inoculum concentration (very high to low)) was “effect is rather low for all concentrations”.
